Reference: ChEMBL document CHEMBL3588760, “Inhibitors of melanogenesis in B16 melanoma 4A5 cells from flower buds of Lawsonia inermis (Henna)” (Bioorg Med Chem Lett, 2015)

Assays:
[1] = Cytotoxicity against mouse B16-4A5 cells assessed as cell viability at 1 uM after 70 hrs by WST-8 assay relative to control; format: cell-based; conditions: read-out: Activity
[2] = Cytotoxicity against mouse B16-4A5 cells assessed as cell viability at 10 uM after 70 hrs by WST-8 assay relative to control; format: cell-based; conditions: read-out: Activity
[3] = Inhibition of melanogenesis in theophylline-stimulated mouse B16-4A5 cells at 1 uM after 72 hrs by microplate reader analysis relative to control; format: functional; conditions: B16-4A5, 72 h
[4] = target: T1, Tyrosinase (Agaricus bisporus) (UniProt O42713); experiment: Inhibition of mushroom tyrosinase using L-DOPA as substrate assessed as dopaquinone production at 100 uM after 5 mins by microplate reader analysis relative to control
T1 sequence (whole entry): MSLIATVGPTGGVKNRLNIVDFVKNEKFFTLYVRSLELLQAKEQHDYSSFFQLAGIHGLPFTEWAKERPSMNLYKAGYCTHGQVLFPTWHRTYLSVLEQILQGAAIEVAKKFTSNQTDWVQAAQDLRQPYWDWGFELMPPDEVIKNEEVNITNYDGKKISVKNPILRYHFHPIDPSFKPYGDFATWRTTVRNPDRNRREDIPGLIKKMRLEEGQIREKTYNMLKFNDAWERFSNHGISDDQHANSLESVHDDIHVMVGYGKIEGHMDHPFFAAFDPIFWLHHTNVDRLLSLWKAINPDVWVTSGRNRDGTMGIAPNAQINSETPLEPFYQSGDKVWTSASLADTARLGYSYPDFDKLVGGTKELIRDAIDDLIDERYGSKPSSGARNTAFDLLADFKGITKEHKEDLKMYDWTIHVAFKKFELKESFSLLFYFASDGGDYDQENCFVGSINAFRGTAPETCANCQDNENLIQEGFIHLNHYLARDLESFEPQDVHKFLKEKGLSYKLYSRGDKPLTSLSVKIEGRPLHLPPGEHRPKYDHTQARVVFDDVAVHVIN

[5] = Cytotoxicity against mouse B16-4A5 cells assessed as cell viability at 3 uM after 70 hrs by WST-8 assay relative to control; format: cell-based; conditions: read-out: Activity
[6] = Inhibition of melanogenesis in theophylline-stimulated mouse B16-4A5 cells at 10 uM after 72 hrs by microplate reader analysis relative to control; format: functional; conditions: B16-4A5, 72 h
[7] = target: Plasminogen (Homo sapiens) (UniProt P00747); experiment: Inhibition of plasmin (unknown origin) at 100 uM after 18 hrs by arianor mahogany dye-based fibrin plate assay relative to control
[8] = Inhibition of melanogenesis in theophylline-stimulated mouse B16-4A5 cells at 3 uM after 72 hrs by microplate reader analysis relative to control; format: functional; conditions: B16-4A5, 72 h
[9] = Downregulation of TRP-1 mRNA expression in theophylline-stimulated mouse B16-4A5 cells assessed as ratio of TRP-1 mRNA to beta-actin mRNA level at 10 uM after 72 hrs by qPCR analysis; format: functional, cell-based
[10] = Downregulation of TRP-2 mRNA expression in theophylline-stimulated mouse B16-4A5 cells assessed as ratio of TRP-2 mRNA to beta-actin mRNA level at 30 uM after 72 hrs by qPCR analysis; format: functional, cell-based
[11] = Downregulation of tyrosinase mRNA expression in theophylline-stimulated mouse B16-4A5 cells assessed as ratio of tyrosinase mRNA to beta-actin mRNA level at 30 uM after 72 hrs by qPCR analysis; format: functional, cell-based
[12] = Downregulation of TRP-1 mRNA expression in theophylline-stimulated mouse B16-4A5 cells assessed as ratio of TRP-1 mRNA to beta-actin mRNA level at 3 uM after 72 hrs by qPCR analysis; format: functional, cell-based
[13] = Downregulation of TRP-1 mRNA expression in theophylline-stimulated mouse B16-4A5 cells assessed as ratio of TRP-1 mRNA to beta-actin mRNA level at 30 uM after 72 hrs by qPCR analysis; format: functional, cell-based
[14] = Downregulation of TRP-2 mRNA expression in theophylline-stimulated mouse B16-4A5 cells assessed as ratio of TRP-2 mRNA to beta-actin mRNA level at 10 uM after 72 hrs by qPCR analysis; format: functional, cell-based
[15] = Cytotoxicity against mouse B16-4A5 cells assessed as cell viability at 100 uM after 70 hrs by WST-8 assay relative to control; format: cell-based; conditions: read-out: Activity
[16] = Downregulation of tyrosinase mRNA expression in theophylline-stimulated mouse B16-4A5 cells assessed as ratio of tyrosinase mRNA to beta-actin mRNA level at 10 uM after 72 hrs by qPCR analysis; format: functional, cell-based
[17] = Cytotoxicity against mouse B16-4A5 cells assessed as cell viability at 30 uM after 70 hrs by WST-8 assay relative to control; format: cell-based; conditions: read-out: Activity
[18] = Downregulation of TRP-2 mRNA expression in theophylline-stimulated mouse B16-4A5 cells assessed as ratio of TRP-2 mRNA to beta-actin mRNA level at 3 uM after 72 hrs by qPCR analysis; format: functional, cell-based
[19] = Downregulation of tyrosinase mRNA expression in theophylline-stimulated mouse B16-4A5 cells assessed as ratio of tyrosinase mRNA to beta-actin mRNA level at 3 uM after 72 hrs by qPCR analysis; format: functional, cell-based
[20] = Inhibition of melanogenesis in theophylline-stimulated mouse B16-4A5 cells at 30 uM after 72 hrs by microplate reader analysis relative to control; format: functional; conditions: B16-4A5, 72 h
[21] = Inhibition of melanogenesis in theophylline-stimulated mouse B16-4A5 cells at 100 uM after 72 hrs by microplate reader analysis relative to control; format: functional; conditions: B16-4A5, 72 h

Chain of Plasminogen (Homo sapiens) (P00747 97-580 limits assumed): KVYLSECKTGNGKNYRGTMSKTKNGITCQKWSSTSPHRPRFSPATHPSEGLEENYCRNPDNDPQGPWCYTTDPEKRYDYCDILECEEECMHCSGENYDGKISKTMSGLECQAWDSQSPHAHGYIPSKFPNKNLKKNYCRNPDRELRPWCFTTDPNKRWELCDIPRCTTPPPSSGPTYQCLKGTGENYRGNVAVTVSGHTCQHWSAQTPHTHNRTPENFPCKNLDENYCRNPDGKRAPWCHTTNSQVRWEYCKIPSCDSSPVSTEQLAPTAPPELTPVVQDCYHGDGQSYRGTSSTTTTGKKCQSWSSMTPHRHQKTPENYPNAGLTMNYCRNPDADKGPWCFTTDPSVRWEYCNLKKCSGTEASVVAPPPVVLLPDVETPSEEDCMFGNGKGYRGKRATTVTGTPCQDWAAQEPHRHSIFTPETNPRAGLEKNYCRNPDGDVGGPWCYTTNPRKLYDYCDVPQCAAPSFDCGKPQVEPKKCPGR
Chain of Plasminogen (Homo sapiens) (P00747 581-810 limits assumed): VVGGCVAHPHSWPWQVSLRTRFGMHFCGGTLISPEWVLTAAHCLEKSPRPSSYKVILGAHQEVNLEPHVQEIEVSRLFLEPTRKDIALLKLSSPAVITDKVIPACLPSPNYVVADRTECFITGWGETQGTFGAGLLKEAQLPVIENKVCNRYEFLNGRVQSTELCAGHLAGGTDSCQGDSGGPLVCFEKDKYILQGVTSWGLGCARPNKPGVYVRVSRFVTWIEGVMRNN

O=c1cc(-c2ccc(O[C@@H]3O[C@H](CO)[C@@H](O)[C@H](O)[C@H]3O)c(O)c2)oc2cc(O)cc(O)c12
viability at 70 h, 1 µM [1]: 99.6%
viability at 70 h, 10 µM [2]: 114%
inhibition at 1 µM [3]: 27.7%
inhibition [4]: 4.4%
viability at 70 h, 3 µM [5]: 105%
inhibition at 10 µM [6]: 38.6%
inhibition [7]: 41.7%
inhibition at 3 µM [8]: 31%

O=c1cc(-c2ccc(O)c(O)c2)oc2cc(O)cc(O)c12 [LUTEOLIN]
Ratio [9]: 0.86
Ratio [10]: 0.82
viability at 70 h, 1 µM [1]: 103%
Ratio [11]: 0.46
Ratio [12]: 0.93
Ratio [13]: 0.83
viability at 70 h, 10 µM [2]: 77.2%
inhibition at 1 µM [3]: 6.2%
Ratio [14]: 0.89
inhibition [4]: 33.5%
viability at 70 h, 100 µM [15]: 12.6%
Ratio [16]: 0.74
viability at 70 h, 3 µM [5]: 102%
viability at 70 h, 30 µM [17]: 63.8%
Ratio [18]: 0.9
inhibition at 10 µM [6]: 38.1%
Ratio [19]: 0.72
inhibition [7]: 28.7%
inhibition at 3 µM [8]: 13.5%
inhibition at 30 µM [20]: 76.7%

O=c1c(O)c(-c2ccc(O[C@@H]3O[C@H](CO)[C@@H](O)[C@H](O)[C@H]3O)c(O)c2)oc2cc(O)cc(O)c12 [SPIRAEOSIDE]
inhibition at 100 µM [21]: 21.4%
viability at 70 h, 1 µM [1]: 105%
viability at 70 h, 10 µM [2]: 106%
inhibition at 1 µM [3]: 22.4%
inhibition [4]: 70.7%
viability at 70 h, 100 µM [15]: 74%
viability at 70 h, 3 µM [5]: 107%
viability at 70 h, 30 µM [17]: 95.8%
inhibition at 10 µM [6]: 31.4%
inhibition [7]: 51%
inhibition at 3 µM [8]: 24.4%
inhibition at 30 µM [20]: 34.7%

O=c1cc(-c2ccc(O)c(O)c2)oc2cc(O[C@@H]3O[C@H](CO)[C@@H](O)[C@H](O)[C@H]3O)cc(O)c12 [GALUTEOLIN]
inhibition at 100 µM [21]: 15.1%
viability at 70 h, 1 µM [1]: 101%
viability at 70 h, 10 µM [2]: 103%
inhibition at 1 µM [3]: 14.8%
viability at 70 h, 100 µM [15]: 57.6%
viability at 70 h, 3 µM [5]: 104%
viability at 70 h, 30 µM [17]: 85.5%
inhibition at 10 µM [6]: 45.1%
inhibition [7]: 61%
inhibition at 3 µM [8]: 14%
inhibition at 30 µM [20]: 11%

O=c1c(O)c(-c2ccc(O)c(O)c2)oc2cc(O)cc(O)c12 [QUERCETIN]
Ratio [9]: 0.68
Ratio [10]: 0.59
viability at 70 h, 1 µM [1]: 104%
Ratio [11]: 0.45
Ratio [12]: 0.68
Ratio [13]: 0.7
viability at 70 h, 10 µM [2]: 106%
inhibition at 1 µM [3]: 13.9%
Ratio [14]: 0.72
Ratio [16]: 0.55
viability at 70 h, 3 µM [5]: 103%
viability at 70 h, 30 µM [17]: 89.1%
Ratio [18]: 0.81
inhibition at 10 µM [6]: 34.3%
Ratio [19]: 0.56
inhibition [7]: 30.2%
inhibition at 3 µM [8]: 17.1%
inhibition at 30 µM [20]: 72.5%

O=c1c(O[C@@H]2O[C@H](CO)[C@@H](O)[C@H](O)[C@H]2O)c(-c2ccc(O)c(O)c2)oc2cc(O)cc(O)c12 [ISOQUERCETIN]
inhibition at 100 µM [21]: 20.7%
viability at 70 h, 1 µM [1]: 99.8%
viability at 70 h, 10 µM [2]: 95.4%
inhibition at 1 µM [3]: 16.7%
inhibition [4]: 5%
viability at 70 h, 100 µM [15]: 76.3%
viability at 70 h, 3 µM [5]: 100%
viability at 70 h, 30 µM [17]: 87%
inhibition at 10 µM [6]: 20.7%
inhibition [7]: -2.5%
inhibition at 3 µM [8]: 33.2%
inhibition at 30 µM [20]: 23.2%

NC[C@H]1CC[C@H](C(=O)O)CC1
inhibition [7]: 9.5%

COc1ccc(-c2cc(=O)c3c(O)cc(O)cc3o2)cc1O[C@@H]1O[C@H](CO)[C@@H](O)[C@H](O)[C@H]1O
Ratio [9]: 1.08
inhibition at 100 µM [21]: 61.5%
Ratio [10]: 0.93
viability at 70 h, 1 µM [1]: 92.8%
Ratio [11]: 1.09
Ratio [12]: 0.85
Ratio [13]: 0.77
viability at 70 h, 10 µM [2]: 94.5%
inhibition at 1 µM [3]: 6.3%
Ratio [14]: 0.92
viability at 70 h, 100 µM [15]: 66.2%
Ratio [16]: 0.99
viability at 70 h, 3 µM [5]: 91.4%
viability at 70 h, 30 µM [17]: 79.4%
Ratio [18]: 1.08
inhibition at 10 µM [6]: 40.6%
Ratio [19]: 1.22
inhibition [7]: 28.5%
inhibition at 3 µM [8]: 18%
inhibition at 30 µM [20]: 44.1%

O=C1CC(c2ccc(O)c(O)c2)Oc2cc(O)cc(O)c21 (racemic)
Ratio [9]: 0.36
inhibition at 100 µM [21]: 61.1%
Ratio [10]: 0.43
viability at 70 h, 1 µM [1]: 108%
Ratio [11]: 0.38
Ratio [12]: 0.94
Ratio [13]: 0.29
viability at 70 h, 10 µM [2]: 88.2%
inhibition at 1 µM [3]: 5.8%
Ratio [14]: 0.55
inhibition [4]: 3.1%
viability at 70 h, 100 µM [15]: 55.9%
Ratio [16]: 0.66
viability at 70 h, 3 µM [5]: 101%
viability at 70 h, 30 µM [17]: 72.6%
Ratio [18]: 0.67
inhibition at 10 µM [6]: 37.2%
Ratio [19]: 0.97
inhibition [7]: 20.7%
inhibition at 3 µM [8]: 10.3%
inhibition at 30 µM [20]: 42.5%

COc1ccc(-c2oc3cc(O)cc(O)c3c(=O)c2O[C@@H]2O[C@H](CO)[C@@H](O)[C@H](O)[C@H]2O)cc1O
viability at 70 h, 1 µM [1]: 93.4%
viability at 70 h, 10 µM [2]: 86.2%
inhibition at 1 µM [3]: 7.7%
viability at 70 h, 3 µM [5]: 91.3%
inhibition at 10 µM [6]: -10.7%
inhibition [7]: 33.1%
inhibition at 3 µM [8]: 3.3%

COc1ccc(-c2cc(=O)c3c(O)cc(O[C@@H]4O[C@H](CO)[C@@H](O)[C@H](O)[C@H]4O)cc3o2)cc1 [TILIANINE]
viability at 70 h, 1 µM [1]: 93.2%
viability at 70 h, 10 µM [2]: 74.2%
inhibition at 1 µM [3]: -5.9%
inhibition [4]: 5.3%
viability at 70 h, 3 µM [5]: 98.3%
inhibition at 10 µM [6]: -36.6%
inhibition [7]: -8.1%
inhibition at 3 µM [8]: -1.1%
